Values joined by “and” are separate entries in the source; they are usually repeats but may differ in a detail not shown here. Equal values may be shown once.
Tests used:
HL-60 cells = assay: HL-60 differentiation, NBT reduction; format: cell-based, human; settings: day 6; sodium stibogluconate 400 μg/ml, GM-CSF 25 ng/ml
Experimental: (§1) Differentiation of AML cell lines was assessed by their ability to produce superoxide as measured by reduction of NBT to formazan and by analysis of expression of CD11b surface marker by flow cytometry. For NBT reduction, each cell suspension was mixed with an equal volume of solution containing 1 mg/ml of NBT (Sigma) and 2.5 µg/ml of TPA for 30 minutes at 37° C. After incubation, cells containing the purple formazan deposits and cells devoid of NBT-reducing activity (white cells) in each sample were determined by counting 200 cells under microscope. Data is expressed as a percentage based on the following ratio: purple cells/purple+white cells. For analysis of cell surface antigens, cells were exposed to phycoerythrin (PE)-conjugated murine anti-human CD11b (DAKO Corp., Carpinteria, Calif.). Analysis of fluorescence was performed on a FACScan flow cytometer (Beckton Dickinson, Mountain View, Calif.).

NB4 cells [1] = assay: NB4 cell cycle analysis; format: cell-based, human; settings: 3 days; sodium stibogluconate 250 μg/ml, ATRA 1 μM
Experimental: The cell cycle was analyzed by flow cytometry after 3 days of culture of NB4 cells in the absence or presence of sodium stibogluconate (250 µg/ml) or ATRA (1 μM). Briefly, the cells were fixed in cold ethanol and incubated for 30 minutes at 4° C. in the dark with a solution of 50 […], 1 mg/ml RNase and 0.1% NP-40. Analysis was performed immediately after staining using the CELLFIT program (Becton Dickinson, Mountain View, Calif.).

U937 cells = assay: U937 differentiation, NBT reduction; format: cell-based, human; settings: day 6; sodium stibogluconate 400 μg/ml, GM-CSF 25 ng/ml
Experimental: as §1

PRL-3 = target: T1, PRL-3 (Homo sapiens, UniProt O75365); assay: In vitro PTPase assay, recombinant PRL-3, DiFMUP substrate; format: biochemical; settings: comparable conditions
T1 construct: GST (N); made in house; host or cells: DHSa (DH5a) bacteria
T1 sequence (O75365 whole entry): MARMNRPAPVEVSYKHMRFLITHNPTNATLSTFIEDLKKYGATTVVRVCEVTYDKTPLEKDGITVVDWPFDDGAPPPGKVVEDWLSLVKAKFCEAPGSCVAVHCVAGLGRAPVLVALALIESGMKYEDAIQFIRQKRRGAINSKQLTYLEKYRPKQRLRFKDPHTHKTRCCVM
Experimental: (§2) In vitro PTPase assays were used to determine the effects of compounds on recombinant PTPases, following established procedures using a synthetic phosphotyrosine peptide or DiFMUP as the substrate (Pathak et al., J. Imumol. 167, 3391 (2001)). Briefly, individual PTPases (0.1 µg/reaction) in 50 μL of PTPase buffer (50 mM Tris, pH 7.4) were incubated at 22° C. for 10 minutes or as indicated in the absence or presence of inhibitory compounds. Substrates (0.2 mM phosphotyrosine peptide) were then added and allowed to react at 22° C. for 18 hrs. PTPase activity of individual reactions was measured by adding 100 µL of malachite green solution (UBI) and then quantifying the amounts of free phosphate cleaved by the PTPase from the peptide substrate by spectrometry (OD660 nm). PTPase assays using DiFMUP as a substrate were conducted following a previously described procedure (Matter, et al., Biochem. Biophys. Res. Comm. 283, 1061 (2001)). Relative PTPase activities were calculated based on the formula: (PTPase activity in the presence of an inhibitory compound/PTPase activity in the absence of the compound)× 100%. To assess the reversibility of PTPase inhibition, GST fusion proteins of the PTPases bound on glutathione beads (Pharmacia) were pre-incubated with cold Tris buffer (50 mM Tris, pH 7.0) or Tris buffer containing the inhibitor at 4° C. for 30 minutes. The beads were then washed three times in cold Tris buffer or not washed prior to subjecting to in vitro PTPase assays.

SHP-1 [2] = target: T2, SHP-1 (Mus musculus, UniProt P29351); assay: Reversibility of SHP-1 inhibition (washing of bead-bound GST/SHP-1); format: biochemical; settings: pre-incubated 4° C. 30 minutes, washed 3 times
T2 construct: made in house
T2 sequence (P29351 whole entry): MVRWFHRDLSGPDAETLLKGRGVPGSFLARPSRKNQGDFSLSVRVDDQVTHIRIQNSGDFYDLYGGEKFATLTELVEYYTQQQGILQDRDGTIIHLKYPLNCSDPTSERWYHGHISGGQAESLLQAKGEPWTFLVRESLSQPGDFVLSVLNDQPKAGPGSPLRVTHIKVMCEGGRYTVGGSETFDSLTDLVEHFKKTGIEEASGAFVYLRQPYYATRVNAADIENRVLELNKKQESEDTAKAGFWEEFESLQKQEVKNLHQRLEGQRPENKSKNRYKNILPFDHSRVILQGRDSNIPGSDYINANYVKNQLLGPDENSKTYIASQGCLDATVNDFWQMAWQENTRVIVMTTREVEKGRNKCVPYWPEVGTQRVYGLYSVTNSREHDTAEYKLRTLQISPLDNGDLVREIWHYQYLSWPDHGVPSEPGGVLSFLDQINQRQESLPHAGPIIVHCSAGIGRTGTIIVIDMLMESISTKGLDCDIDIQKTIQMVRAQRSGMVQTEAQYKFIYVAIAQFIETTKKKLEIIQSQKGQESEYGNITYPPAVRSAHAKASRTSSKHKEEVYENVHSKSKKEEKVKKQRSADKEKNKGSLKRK
Description: The beads were then either subjected to in vitro PTPase assays or washed 3 times in Tris buffer then subjected to in vitro PTPase assays.

SHP-1 [3] = target: T2, SHP-1; assay: In vitro PTPase assay, recombinant GST/SHP-1; format: biochemical
Experimental: (§3) In vitro PTPase activities were measured using the commercial protein tyrosine phosphatase assay kit (Upstate Biotechnology, Inc. (“UBI”)) following established procedure known to one of skill in the art. This assay measures the in vitro dephosphorylation of a synthetic phosphotyrosine peptide of the sequence Arg-Arg-Leu-Ile-Glu-Asp-Ala-Gle-Tyr-Ala-Ala-Arg-Gly, wherein the tyrosine is phosphorylated (SEQ ID NO: 3). Briefly, 0.01 µg of GST/PTPase fusion proteins was incubated in 50 μL of Tris buffer (10 mM Tris, pH 7.4) containing different concentrations of inhibitors or chemicals (0-1,000 μg/ml) at 22° C. for 10 minutes, followed by addition of 0.2 mM of the phosphotyrosine peptide and incubation at 22° C. for 18 hours. 100 μL of Malachite Green solution was added and incubated for 5 minutes, and the absorbance at 660 nm was measured after 5 minutes.
as §2
(§4) In vitro PTPase assays were used to determine the effects of levamisole (Sigma), pentamidine (American Pharmaceutical Partners, Inc.), and ketoconazole (Sigma) on recombinant PTPases, following established procedures (Pathak et al., J. Imumol. 167, 3391 (2001); Pathak et al., Leukemia 16, 2285 (2002), Yi et al., J. Immunol. 169, 5978 (2002)) using a synthetic phosphotyrosine peptide or DiFMUP as the substrate as detailed above in section I.A.2.

MKP1 = target: T3, MKP1 (Homo sapiens, UniProt P28562); assay: In vitro PTPase assay, GST/MKP1; format: biochemical
T3 construct: GST (N); made in house; host or cells: DH5a bacteria
T3 sequence (P28562 1-367): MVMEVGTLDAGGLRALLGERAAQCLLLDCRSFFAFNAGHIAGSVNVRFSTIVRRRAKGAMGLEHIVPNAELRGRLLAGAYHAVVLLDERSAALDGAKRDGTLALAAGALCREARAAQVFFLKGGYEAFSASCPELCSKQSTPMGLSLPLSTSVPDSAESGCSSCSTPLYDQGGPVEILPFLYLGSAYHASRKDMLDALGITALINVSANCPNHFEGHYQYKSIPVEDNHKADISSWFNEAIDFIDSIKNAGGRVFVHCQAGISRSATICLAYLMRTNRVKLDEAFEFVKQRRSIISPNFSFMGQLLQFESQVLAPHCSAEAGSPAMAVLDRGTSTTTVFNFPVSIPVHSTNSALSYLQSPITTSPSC
Experimental: as §3, §4

GSTm8 = assay: In vitro PTPase assay, GSTm8; format: biochemical; settings: 3-4 μg/ml or 10-100 μg/ml
Description: as §4

[4] = system: Jak2/Stat5 tyrosine phosphorylation; assay: IL-3-induced Jak2/Stat5 tyrosine phosphorylation in Baf3 cells; format: cell-based, murine; settings: potassium antimonyl tartrate
Experimental: For induction of cellular protein phosphorylation by sodium stibogluconate or pervanadate, Baf3 cells were incubated in 0.1% FCS-RPMI 1640 medium at 37° C. for 16 hours. The cells were then washed twice in RPMI 1640 medium and incubated with sodium stibogluconate or pervanandate (0.1 mM) for various times prior to termination by lysing cells in cold lysis buffer (50 mM Tris, pH 7.4; 150 mM NaCl; 0.2 mM Na3VO4; 20 mm NaF; 1% Nonidet P-40; 2 mM PMSF; 20 µg/ml of Aprotinin and 1 mM of sodium molybdic acid). To determine the effect of sodium stibogluconate or potassium antimonyl tartrate on IL-3-induced Jak/Stat phosphorylation, Baf3 cells were deprived of the growth factor for 16 hours in 0.1% FCS RPMI 1640 medium and then incubated with or without sodium stibogluconate or potassium antimonyl tartrate for 10 minutes. IL-3 was next added to the cell suspension and incubated for various times. The Cells were then harvested and lysed in cold lysis buffer at 4° C. for 45 minutes. Total cell lysates (TCL) were separated in SDS-PAGE gels, blotted onto nitrocellulose membrane (Schleicher & Schuell), probed with specific antibodies and detected using an enhanced chemiluminescence kit (ECL, Amersham, Arlington Heights, Ill.).

Baf3 cells = assay: Baf3 cell proliferation assay; format: cell-based, murine
Experimental: The murine hematopoietic cell line Baf3 was maintained in RPMI 1640 medium supplemented with 10% fetal calf serum (FCS) and murine IL-3 (20 units/ml) as described previously in Damen et al., J. Biol. Chem. 270, 23402 (1995). Human myeloid cell line TF-1 was maintained in RPMI 1640 supplemented with 10% FCS and 40 ng/ml of recombinant human GM-CSF as described previously in Thomassen et al., Clin. Immunol. 95, 85 (2000). For cell proliferation assays, cells were washed in 10% FCS medium twice, resuspended in 10% FCS medium, incubated at 37° C. for 16 hours, and then cultured at 37° C. in 10% FCS medium containing various amounts of cytokines, sodium stibogluconate, or potassium antimonyl tartrate for 3-6 days as indicated. The cell numbers in proliferation assays were determined by an MTT assay or by microscopic cell counting as indicated.

PTP1B = target: T4, PTP1B (Homo sapiens, UniProt P18031); assay: In vitro PTPase assay, GST/PTP1B; format: biochemical; settings: 1-1,000 μg/ml
T4 construct: GST; purchased Upstate Biotechnology Inc. (Lake Placid, N.Y.)
T4 sequence (P18031 whole entry, species assumed): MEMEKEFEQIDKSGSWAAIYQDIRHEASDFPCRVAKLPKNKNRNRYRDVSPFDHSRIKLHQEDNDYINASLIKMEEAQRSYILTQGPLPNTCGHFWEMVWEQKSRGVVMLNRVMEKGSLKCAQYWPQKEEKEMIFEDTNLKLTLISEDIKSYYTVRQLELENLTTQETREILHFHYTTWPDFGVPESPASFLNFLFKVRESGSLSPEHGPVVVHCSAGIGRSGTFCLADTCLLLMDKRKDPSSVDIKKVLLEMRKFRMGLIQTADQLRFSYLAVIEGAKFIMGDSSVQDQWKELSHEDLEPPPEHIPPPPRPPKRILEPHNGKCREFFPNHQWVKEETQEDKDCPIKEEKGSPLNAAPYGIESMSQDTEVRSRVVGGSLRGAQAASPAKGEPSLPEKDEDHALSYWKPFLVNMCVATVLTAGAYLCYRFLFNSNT
Experimental: as §3, §4

NB4 cells [5] = assay: NB4 differentiation, NBT reduction; format: cell-based, human; settings: comparable conditions
Experimental: as §1

Q: What does the source list for `CC1=C(/C=C/C(C)=C/C=C/C(C)=C/C(=O)O)C(C)(C)CCC1` [ATRA, All-trans-retinoic acid]?
A: NBT-positive (differentiated) HL-60 cells (HL-60 cells): 90%; NB4 cell cycle effect (NB4 cells [1]): arrested at G1 phase; NBT-positive (differentiated) U937 cells (U937 cells): 72% and 73%

Q: Which “inhibition of PRL-3 with DiFMUP substrate” value (PRL-3) does the source give for `Cc1ccc(C(=O)Nc2ccc(S(=O)(=O)O)c3cc(S(=O)(=O)O)cc(S(=O)(=O)O)c23)cc1NC(=O)c1cccc(NC(=O)Nc2cccc(C(=O)Nc3cc(C(=O)Nc4ccc(S(=O)(=O)O)c5cc(S(=O)(=O)O)cc(S(=O)(=O)O)c45)ccc3C)c2)c1` [Suramin] here?
A: less effective than sodium stibogluconate

Q: And the “inhibition of GST/SHP-1 after washing” value (SHP-1 [2])?
A: almost completely removed by the washing process

Q: And the “inhibition of SHP-1 compared with sodium stibogluconate” value (SHP-1 [3]; under comparable conditions)?
A: less effective

Q: Which “inhibition of MKP1” value (MKP1) does the source give for `c1ccc([C@H]2CN3CCSC3=N2)cc1` [levamisole] here?
A: substantial inhibition

Q: And the “inhibitory activity against SHP-1” value (SHP-1 [3]; 3-4 μg/ml or 10-100 μg/ml)?
A: no obvious inhibitory activity

Q: What about the “inhibitory activity against GSTm8” value (GSTm8) of the same compound?
A: no obvious inhibitory activity

Q: For `O.O.O.O=C([O-])[C@H]([O-])[C@@H]([O-])C(=O)[O-].O=C([O-])[C@H]([O-])[C@@H]([O-])C(=O)[O-].[K+].[K+].[Sb+3].[Sb+3]` [potassium antimonyl tartrate], which “IL-3-induced Stat5 phosphorylation” value [4] is on record?
A: failed to enhance IL-3-induced Stat5 phosphorylation

Q: What about the “inhibition of SHP-1” value (SHP-1 [3]; 1-1,000 μg/ml) of the same compound?
A: no detectable inhibition

Q: What about the “toxicity against Baf3 cells” value (Baf3 cells) of the same compound?
A: marked toxicity against Baf3 cells

Q: And the “IL-3-induced proliferation of Baf3 cells” value (Baf3 cells; IL-3 10 units/ml, three days)?
A: failed to enhance

Q: What about the “inhibition of PTP1B” value (PTP1B) of the same compound?
A: no detectable inhibition

Q: With `[Na+].[Na+].[Na+].[O]=[V]([O-])([O-])[O-]` [sodium orthovanadate] as the compound, how does the “inhibition of PRL-3 with DiFMUP substrate” value (PRL-3) read?
A: less effective than sodium stibogluconate

Q: Which results are given for GM-CSF: recombinant human GM-CSF?
A: NBT-positive (differentiated) HL-60 cells (HL-60 cells): 8-10%; effect of GM-CSF on NB4 differentiation (NB4 cells [5]): no detectable effect; NBT-positive (differentiated) U937 cells (U937 cells): 8-10%

— patent US20080226596A1, “Therapeutic compositions and methods useful in treating hepatitis” (priority 2006, published 2008)
